# Target: T1, Dimer of Gag-Pol polyprotein [489-587] (Human immunodeficiency virus 1, UniProt P12497)
# T1 construct: 489-587
# Assay: Protease Inhibition Assay
# Conditions: pH 4.7; 37 °C
# Description: For determination of IC50 values, HIV-1 protease was added to assay buffer containing inhibitor and the substrate (H-His-Lys-Ala-Arg-Val-Leu- (p-NO2) Phe-Glu-Ala-norleucine-Ser-NH2). The Leu- (p-NO2) Phe bond of the substrate was cleaved by the enzyme, and the substrate and products were separated by reversed-phase HPLC. Absorbance was measured at 220 nm, peak areas were determined, and percentage conversion to product was calculated.
row,Compound,IC50
1,O=C(CCc1ccc(Br)cc1)c1ccc(CC(=O)c2ccccc2-c2ccccc2C(=O)O)cc1 [2-[2-(2-{4-[3-(4-bromophenyl)propanoyl]phenyl}acetyl)phenyl]benzoic acid],19000 nM
2,"O=C(CCCCC1CCCCC1)OCC(O)C1OC(=O)C(O)C1=O (stereo unspecified) [2-(3,4-dihydroxy-5-oxo-2,5-dihydrofuran-2-yl)-2-hydroxyethyl 5-cyclohexylpentanoate]",29000 nM
3,O=c1oc(-c2ccccc2)cc(O)c1SCCc1ccccc1 [4-hydroxy-6-phenyl-3-[(2-phenylethyl)sulfanyl]-2H-pyran-2-one],1300 nM
4,O=c1oc(-c2ccccc2)cc(O)c1SCc1ccccc1 [3-(benzylsulfanyl)-4-hydroxy-6-phenyl-2H-pyran-2-one],1700 nM
5,O=c1oc(-c2ccc(O)cc2)cc(O)c1SCCc1ccccc1 [4-hydroxy-6-(4-hydroxyphenyl)-3-[(2-phenylethyl)sulfanyl]-2H-pyran-2-one],520 nM
6,O=c1oc(-c2ccccc2)cc(O)c1Sc1ccccc1,3000 nM
7,Cc1cccc(-c2cc(O)c(Sc3ccccc3C(C)(C)C)c(=O)o2)c1 [3-[(2-tert-butylphenyl)sulfanyl]-4-hydroxy-6-(3-methylphenyl)-2H-pyran-2-one],7 nM
8,O=C(O)COc1ccc(-c2cc(O)c(SCCc3ccccc3)c(=O)o2)cc1 [2-(4-{4-hydroxy-2-oxo-3-[(2-phenylethyl)sulfanyl]-2H-pyran-6-yl}phenoxy)acetic acid],160 nM
9,CC(C)(C)c1ccccc1Sc1c(O)cc(-c2ccccc2)oc1=O [3-[(2-tert-butylphenyl)sulfanyl]-4-hydroxy-6-phenyl-2H-pyran-2-one],17 nM
10,CC(C)c1ccccc1Sc1c(O)cc(-c2ccccc2)oc1=O [4-hydroxy-6-phenyl-3-{[2-(propan-2-yl)phenyl]sulfanyl}-2H-pyran-2-one],37 nM
11,"O=c1cc(Cc2cccc(Cl)c2)[nH][nH]1 [5-[(3-chlorophenyl)methyl]-2,3-dihydro-1H-pyrazol-3-one]",29000 nM
12,"O=C(O)c1cc(O)c(O)cc1C(=O)c1cc(Cl)ccc1Cl [2-[(2,5-dichlorophenyl)carbonyl]-4,5-dihydroxybenzoic acid]",8100 nM
13,O=c1oc2ccccc2c(O)c1Cc1ccccc1 [3-benzyl-4-hydroxy-2H-chromen-2-one],120000 nM
14,O=C(O)c1cc(-c2ccc(Cl)cc2)nc2cc(O)ccc12 [2-(4-chlorophenyl)-7-hydroxyquinoline-4-carboxylic acid],6900 nM
15,Cc1ccccc1Sc1c(O)cc(-c2ccccc2)oc1=O [4-hydroxy-3-[(2-methylphenyl)sulfanyl]-6-phenyl-2H-pyran-2-one],420 nM

# Same assay, conditions: pH 6.2; 37 °C
row,Compound,IC50
1,CC(C)c1ccccc1Sc1c(O)cc(-c2ccccc2)oc1=O [4-hydroxy-6-phenyl-3-{[2-(propan-2-yl)phenyl]sulfanyl}-2H-pyran-2-one],690 nM

# From BindingDB's records for doi:10.1016/0968-0896(96)00134-4 (Parke-Davis Pharmaceutical Research, 1996)
